This note sets out measurements from US9505745B2, “Enhancer of zeste homolog 2 inhibitors” (GlaxoSmithKline Intellectual Property (No.2) Limited, priority 2013, dated 2016).

Assay [1] has as its target T1, EZH2 within the PRC2 complex (Homo sapiens (Human), UniProt Q15910). Put plainly: EZH2 methyltransferase SPA, biotinylated histone H3K27 peptide substrate (Assay Protocol 2). The format is biochemical. As to conditions: 3H-SAM, ≦10 nM approaches limit of detection. How it is done:
Compounds contained herein were evaluated for their ability to inhibit the methyltransferase activity of EZH2 within the PRC2 complex. Human PRC2 complex was prepared by co-expressing each of the 5 member proteins (FLAG-EZH2, EED, SUZ12, RbAp48, AEBP2) in Sf9 cells followed by co-purification. Enzyme activity was measured in a scintillation proximity assay (SPA) where a tritiated methyl group is transferred from 3H-SAM to a lysine residue on a biotinylated, unmethylated peptide substrate derived from histone H3. The peptides were captured on streptavidin-coated SPA beads and the resulting signal was read on a ViewLux plate reader.
(§1) Part A. Compound Preparation
• 4. Prepare 10 mM stock of compounds from solid in 100% DMSO. • 5. Set up an 11-point serial dilution (1:4 dilution, top concentration 10 mM) in 100% DMSO for each test compound in a 384 well plate leaving columns 6 and 18 for DMSO controls. • 6. Dispense 10 nL of compound from the dilution plate into reaction plates (Corning, 384-well polystyrene NBS, Cat#3673). Part B. Reagent Preparation Prepare the following solutions: • 7. 1× Base Buffer, 50 mM Tris-HCl, pH 8, 2 mM MgCl2: Per 1 L of base buffer, combine 1 M Tris-HCl, pH 8 (50 mL), 1 M MgCl2 (2 mL), and distilled water (948 mL). • 8. 1× Assay Buffer: Per 10 mL of 1× Assay Buffer, combine 1× Base Buffer (9.96 mL), 1 M DTT (40 uL), and 10% Tween-20 (1 uL) to provide a final concentration of 50 mM Tris-HCl, pH 8, 2 mM MgCl2, 4 mM DTT, 0.001% Tween-20. • 9. 2× Enzyme Solution: Per 10 mL of 2× Enzyme Solution, combine 1× Assay Buffer (9.99 mL) and 3.24 uM EZH2 5 member complex (6.17 uL) to provide a final enzyme concentration of 1 nM. • 10. SPA Bead Solution: Per 1 mL of SPA Bead Solution, combine Streptavidin coated SPA beads (PerkinElmer, Cat#RPNQ0261, 40 mg) and 1× Assay Buffer (1 mL) to provide a working concentration of 40 mg/mL. • 11. 2× Substrate Solution: Per 10 mL of 2× Substrate Solution, combine 40 mg/mL SPA Bead Solution (375 uL), 1 mM biotinylated histone H3K27 peptide (200 uL), 12.5 uM 3H-SAM (240 uL; 1 mCi/mL), 1 mM cold SAM (57 uL), and 1× Assay Buffer (9.13 mL) to provide a final concentration of 0.75 mg/mL SPA Bead Solution, 10 uM biotinylated histone H3K27 peptide, 0.15 uM 3H-SAM (˜12 uCi/mL 3H-SAM), and 2.85 uM cold SAM. • 12. 2.67× Quench Solution: Per 10 mL of 2.67× Quench Solution, combine 1× Assay Buffer (9.73 mL) and 10 mM cold SAM (267 uL) to provide a final concentration of 100 uM cold SAM. Part C. Assay Reaction in 384-well Grenier Bio-One Plates Compound Addition • 3. Stamp 10 nL/well of 1000× Compound to test wells (as noted above). • 4. Stamp 10 nL/well of 100% DMSO to columns 6 & 18 (high and low controls, respectively). Assay • 10. Dispense 5 uL/well of 1× Assay Buffer to column 18 (low control reactions). • 11. Dispense 5 uL/well of 2× Substrate Solution to columns 1-24 (note: substrate solution should be mixed to ensure homogeneous bead suspension before dispensing into matrix reservoir). • 12. Dispense 5 uL/well of 2× Enzyme Solution to columns 1-17, 19-24. • 13. Incubate the reaction for 60 min at room temperature. Quench • 5. Dispense 6 uL/well of the 2.67× Quench Solution to columns 1-24. • 6. Seal assay plates and spin for ˜1 min at 500 rpm. • 7. Dark adapt plates in the ViewLux instrument for 15-60 min. Read plates • 2. Read the assay plates on the Viewlux Plate Reader utilizing the 613 nm emission filter or clear filter (300 s exposure). Reagent addition can be done manually or with automated liquid handler. Results
(§2) Percent inhibition was calculated relative to the DMSO control for each compound concentration and the resulting values were fit using standard IC50 fitting parameters within the ABASE data fitting software package.

Assay [2] addresses T1, EZH2 within the PRC2 complex. The experiment in a line: EZH2 methyltransferase SPA, mononucleosome substrate (Assay Protocol 1). The note with it: HeLa mononucleosome substrate, 3H-SAM, ≦10 nM approaches limit of detection. Format: biochemical. How it is done:
Compounds contained herein were evaluated for their ability to inhibit the methyltransferase activity of EZH2 within the PRC2 complex. Human PRC2 complex was prepared by co-expressing each of the 5 member proteins (FLAG-EZH2, EED, SUZ12, RbAp48, AEBP2) in Sf9 cells followed by co-purification. Enzyme activity was measured in a scintillation proximity assay (SPA) where a tritiated methyl group is transferred from 3H-SAM to a lysine residue on Histone H3 of a mononucleosome, purified from HeLa cells. Mononucleosomes were captured on SPA beads and the resulting signal is read on a ViewLux plate reader.
as §1
• 1. Prepare 10 mM stock of compounds from solid in 100% DMSO. • 2. Set up an 11-point serial dilution (1:3 dilution, top concentration 10 mM) in 100% DMSO for each test compound in a 384 well plate leaving columns 6 and 18 for DMSO controls. • 3. Dispense 100 nL of compound from the dilution plate into reaction plates (Grenier Bio-One, 384-well, Cat#784075). Part B. Reagent Preparation Prepare the following solutions: • 1. 50 mM Tris-HCl, pH 8: Per 1 L of base buffer, combine 1 M Tris-HCl, pH 8 (50 mL) and distilled water (950 mL). • 2. 1× Assay Buffer: Per 10 mL of 1× Assay Buffer, combine 50 mM Tris-HCl, pH 8 (9958 uL), 1 M MgCl2 (20 uL), 2 M DTT (20 uL), and 10% Tween-20 (2 uL) to provide a final concentration of 50 mM Tris-HCl, pH 8, 2 mM MgCl2, 4 mM DTT, 0.002% Tween-20. • 3. 2× Enzyme Solution: Per 10 mL of 2× Enzyme Solution, combine 1× Assay Buffer and PRC2 complex to provide a final enzyme concentration of 10 nM. • 4. SPA Bead Suspension: Per 1 mL of SPA Bead Suspension, combine PS-PEI coated LEADSeeker beads (40 mg) and H2O (1 mL) to provide a final concentration of 40 mg/mL. • 5. 2× Substrate Solution: Per 10 mL of 2× Substrate Solution, combine 1× Assay Buffer (9728.55 uL), 800 ug/mL mononucleosomes (125 uL), 1 mM cold SAM (4 uL), and 7.02 uM 3H-SAM (142.45 uL; 0.55 mCi/mL) to provide a final concentration of 5 ug/mL nucleosomes, 0.2 uM cold SAM, and 0.05 uM 3H-SAM. • 6. 2.67× Quench/Bead Mixture: Per 10 mL of 2.67× Quench/Bead Mixture, combine ddH2O (9358 uL), 10 mM cold SAM (267 uL), 40 mg/mL Bead Suspension (375 uL) to provide a final concentration of 100 uM cold SAM and 0.5 mg/mL SPA beads. Part C. Assay Reaction in 384-well Grenier Bio-One Plates Compound Addition • 1. Dispense 100 nL/well of 100× Compound to test wells (as noted above). • 2. Dispense 100 nL/well of 100% DMSO to columns 6 & 18 for high and low controls, respectively. Assay • 1. Dispense 5 uL/well of 1× Assay Buffer to column 18 (low control reactions). • 2. Dispense 5 uL/well of 2× Enzyme Solution to columns 1-17, 19-24. • 3. Spin assay plates for ˜1 min at 500 rpm. • 4. Stack the assay plates, covering the top plate. • 5. Incubate the compound/DMSO with the enzyme for 30 min at room temperature. • 6. Dispense 5 uL/well of 2× Substrate Solution to columns 1-24. • 7. Spin assay plates for ˜1 min at 500 rpm. • 8. Stack the assay plates, covering the top plate. • 9. Incubate the assay plates at room temperature for 1 hour. Quench/Bead Addition • 1. Dispense 5 uL/well of the 3× Quench/Bead Mixture to columns 1-24. • 2. Seal the top of each assay plate with adhesive TopSeal. • 3. Spin assay plates for ˜1 min at 500 rpm. • 4. Equilibrate the plates for >20 min. Read plates • 1. Read the assay plates on the Viewlux Plate Reader utilizing the 613 nm emission filter with a 300 s read time.
Reagent addition can be done manually or with automated liquid handler. • The final DMSO concentration in this assay is 1%. • The positive control is in column 6; negative control is in column 18. • Final starting concentration of compounds is 100 µM. Results
as §2

T1 sequence (Q15910 whole entry): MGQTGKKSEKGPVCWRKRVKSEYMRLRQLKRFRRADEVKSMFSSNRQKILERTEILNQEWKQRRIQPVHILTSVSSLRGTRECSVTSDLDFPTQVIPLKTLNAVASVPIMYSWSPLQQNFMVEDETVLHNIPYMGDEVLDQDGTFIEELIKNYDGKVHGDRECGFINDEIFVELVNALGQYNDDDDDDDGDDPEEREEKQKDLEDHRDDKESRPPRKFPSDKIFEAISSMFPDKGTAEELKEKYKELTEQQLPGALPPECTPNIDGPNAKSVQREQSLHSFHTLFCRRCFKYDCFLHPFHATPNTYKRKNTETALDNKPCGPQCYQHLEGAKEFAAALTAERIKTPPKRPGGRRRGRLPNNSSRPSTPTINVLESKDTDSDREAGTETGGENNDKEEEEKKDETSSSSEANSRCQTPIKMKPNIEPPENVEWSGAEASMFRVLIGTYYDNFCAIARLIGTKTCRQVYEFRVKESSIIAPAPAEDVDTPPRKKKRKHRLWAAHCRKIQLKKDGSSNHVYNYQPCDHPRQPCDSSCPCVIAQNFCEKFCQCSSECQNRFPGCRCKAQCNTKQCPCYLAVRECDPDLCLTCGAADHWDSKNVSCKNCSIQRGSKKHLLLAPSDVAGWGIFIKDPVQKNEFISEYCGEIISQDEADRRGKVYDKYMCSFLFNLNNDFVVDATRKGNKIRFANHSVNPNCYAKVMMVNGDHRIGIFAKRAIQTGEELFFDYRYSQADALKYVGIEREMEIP
T1 sequence (O75530 whole entry partner): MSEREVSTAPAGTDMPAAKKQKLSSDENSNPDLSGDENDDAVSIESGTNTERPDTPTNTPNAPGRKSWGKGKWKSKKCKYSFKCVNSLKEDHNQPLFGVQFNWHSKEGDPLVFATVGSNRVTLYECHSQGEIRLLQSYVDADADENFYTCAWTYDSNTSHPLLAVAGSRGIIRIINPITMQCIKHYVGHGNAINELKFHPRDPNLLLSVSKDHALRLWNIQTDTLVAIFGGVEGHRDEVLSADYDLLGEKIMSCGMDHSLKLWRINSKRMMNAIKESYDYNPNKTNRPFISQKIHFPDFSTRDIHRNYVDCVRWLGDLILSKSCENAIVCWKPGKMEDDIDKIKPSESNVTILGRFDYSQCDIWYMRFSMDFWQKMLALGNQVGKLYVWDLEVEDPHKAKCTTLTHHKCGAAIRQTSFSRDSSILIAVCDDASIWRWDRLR
T1 sequence (Q15022 whole entry partner): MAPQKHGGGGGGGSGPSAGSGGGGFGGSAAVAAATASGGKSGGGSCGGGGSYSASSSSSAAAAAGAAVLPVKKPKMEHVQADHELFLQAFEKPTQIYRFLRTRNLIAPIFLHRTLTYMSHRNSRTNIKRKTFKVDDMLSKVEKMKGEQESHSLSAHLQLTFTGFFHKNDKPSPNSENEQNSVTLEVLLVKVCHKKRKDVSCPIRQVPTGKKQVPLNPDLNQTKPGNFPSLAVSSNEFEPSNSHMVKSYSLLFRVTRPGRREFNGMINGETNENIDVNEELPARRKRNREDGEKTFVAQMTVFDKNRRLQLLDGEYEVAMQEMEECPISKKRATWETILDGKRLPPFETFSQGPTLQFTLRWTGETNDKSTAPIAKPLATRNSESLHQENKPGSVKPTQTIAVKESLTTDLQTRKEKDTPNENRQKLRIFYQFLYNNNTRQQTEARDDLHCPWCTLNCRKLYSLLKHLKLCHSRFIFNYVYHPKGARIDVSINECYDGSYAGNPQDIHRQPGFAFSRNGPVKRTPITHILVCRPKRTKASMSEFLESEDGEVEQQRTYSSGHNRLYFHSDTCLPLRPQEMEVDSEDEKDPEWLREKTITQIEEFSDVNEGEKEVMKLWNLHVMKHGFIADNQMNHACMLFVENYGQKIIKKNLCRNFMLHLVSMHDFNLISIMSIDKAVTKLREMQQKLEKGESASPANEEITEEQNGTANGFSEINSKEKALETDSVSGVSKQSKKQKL
T1 sequence (Q09028 whole entry partner): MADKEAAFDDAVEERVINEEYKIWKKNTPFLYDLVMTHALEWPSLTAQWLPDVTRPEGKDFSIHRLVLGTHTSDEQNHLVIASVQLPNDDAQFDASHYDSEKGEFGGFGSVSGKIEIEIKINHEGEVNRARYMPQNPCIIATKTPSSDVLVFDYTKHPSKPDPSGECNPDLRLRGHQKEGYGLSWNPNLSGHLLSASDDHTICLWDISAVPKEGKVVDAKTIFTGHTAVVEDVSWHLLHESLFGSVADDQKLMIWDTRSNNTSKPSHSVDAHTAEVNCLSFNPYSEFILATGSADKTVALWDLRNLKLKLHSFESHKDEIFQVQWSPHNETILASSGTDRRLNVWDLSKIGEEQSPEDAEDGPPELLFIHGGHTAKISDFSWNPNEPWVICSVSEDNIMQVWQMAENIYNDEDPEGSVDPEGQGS
T1 sequence (Q6ZN18 whole entry partner): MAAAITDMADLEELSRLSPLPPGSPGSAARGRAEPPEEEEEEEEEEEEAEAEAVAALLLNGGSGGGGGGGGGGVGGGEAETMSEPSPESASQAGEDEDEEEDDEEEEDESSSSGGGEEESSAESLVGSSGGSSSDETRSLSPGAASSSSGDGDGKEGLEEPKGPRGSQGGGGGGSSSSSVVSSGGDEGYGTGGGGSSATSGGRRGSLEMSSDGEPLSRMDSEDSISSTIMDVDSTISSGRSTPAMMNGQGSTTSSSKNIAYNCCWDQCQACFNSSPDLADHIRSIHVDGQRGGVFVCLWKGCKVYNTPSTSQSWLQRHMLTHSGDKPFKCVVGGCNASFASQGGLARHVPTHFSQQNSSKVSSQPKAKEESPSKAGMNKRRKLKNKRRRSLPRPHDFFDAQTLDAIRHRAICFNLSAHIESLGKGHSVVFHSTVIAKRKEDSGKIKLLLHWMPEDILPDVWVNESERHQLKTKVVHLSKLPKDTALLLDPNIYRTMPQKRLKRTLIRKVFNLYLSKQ

For `CCN(c1scc(C(=O)NCc2c(C(F)(F)F)cc(C)[nH]c2=O)c1C)C1CCOCC1` [Example 15, 5-(Ethyl(tetrahydro-2H-pyran-4-yl)amino)-4-methyl-N-((6-methyl-2-oxo-4-(trifluoromethyl)-1,2-dihydropyridin-3-yl)methyl)thiophene-3-carboxamide], the concentration for half-maximal inhibition (IC50) came to 630 nM in assay [1] and 79 nM in assay [2].

For the molecule `CCN(c1csc(C(=O)NCc2c(C)cc(C)[nH]c2=O)c1C)[C@H]1CC[C@@H](N(C)C)CC1` [Example 5, N-((4,6-dimethyl-2-oxo-1,2-dihydropyridin-3-yl)methyl)-4-(((cis)-4-(dimethylamino)cyclohexyl)(ethyl)amino)-3-methylthiophene-2-carboxamide], the IC50 was determined as 50 nM in assay [1] and 32 nM in assay [2].

In the case of `Cc1cc(C)c(CNC(=O)c2csc(C3CCCN3C3CCOCC3)c2C)c(=O)[nH]1` (stereo not drawn) [Example 22, N-((4,6-Dimethyl-2-oxo-1,2-dihydropyridin-3-yl)methyl)-4-methyl-5-(1-(tetrahydro-2H-pyran-4-yl)pyrrolidin-2-yl)thiophene-3-carboxamide], the values for the concentration for half-maximal inhibition (IC50) in assay [1] and in assay [2] were 6310 nM and 398 nM, respectively.

As to `CCC(c1scc(C(=O)NCc2c(C)cc(C)[nH]c2=O)c1C)N1CCC(N(C)C)CC1` (stereo not drawn) [Example 28, N-((4,6-dimethyl-2-oxo-1,2-dihydropyridin-3-yl)methyl)-5-(1-(4-(dimethylamino)piperidin-1-yl)propyl)-4-methylthiophene-3-carboxamide], the IC50 in assay [1] amounted to 63 nM; in assay [2], 19 nM.

The molecule `CCC(c1scc(C(=O)NCc2c(C)cc(C)[nH]c2=O)c1C)[C@H]1CC[C@H](N(C)C)CC1` (single isomer, unassigned; (-)) [Example 44, (−)-N-((4,6-Dimethyl-2-oxo-1,2-dihydropyridin-3-yl)methyl)-5-(1-((trans)-4-(dimethylamino)cyclohexyl)propyl)-4-methylthiophene-3-carboxamide] registered an IC50 in assay [1] of 20 nM.

In turn, `CCN(c1sc(-c2ccco2)c(C(=O)NCc2c(C)cc(C)[nH]c2=O)c1C)C1CCOCC1` [Example 76, N-((4,6-dimethyl-2-oxo-1,2-dihydropyridin-3-yl)methyl)-5-(ethyl(tetrahydro-2H-pyran-4-yl)amino)-2-(furan-2-yl)-4-methylthiophene-3-carboxamide] displayed an IC50 in assay [1] of 32 nM.

In the case of `CCN(c1sc(C2CCN(S(C)(=O)=O)C2)c(C(=O)NCc2c(C)cc(C)[nH]c2=O)c1C)C1CCOCC1` (stereo not drawn) [Example 62, N-((4,6-Dimethyl-2-oxo-1,2-dihydropyridin-3-yl)methyl)-5-(ethyl(tetrahydro-2H-pyran-4-yl)amino)-4-methyl-2-(1-(methylsulfonyl)pyrrolidin-3-yl)thiophene-3-carboxamide], the IC50 in assay [1] came to 501 nM.

`C=C(c1scc(C(=O)NCc2c(C)cc(C)[nH]c2=O)c1C)C1CCNCC1` [Example 49, N-((4,6-dimethyl-2-oxo-1,2-dihydropyridin-3-yl)methyl)-4-methyl-5-(1-(piperidin-4-yl)vinyl)thiophene-3-carboxamide] returned a 50% inhibitory concentration (IC50) in assay [1] of 126 nM.

On to `CCN(c1scc(C(=O)NCc2c(C)cc(C)[nH]c2=O)c1C)C1CCNCC1F` (stereo not drawn) [Example 67, N-((4,6-dimethyl-2-oxo-1,2-dihydropyridin-3-yl)methyl)-5-(ethyl(3-fluoropiperidin-4-yl)amino)-4-methylthiophene-3-carboxamide], for which the IC50 in assay [1] is 20 nM. Against the preceding molecule, the IC50 is about 6.3-fold lower.

In assay [1], `C/C=C(/c1scc(C(=O)NCc2c(C)cc(C)[nH]c2=O)c1C)[C@H]1CC[C@H](N)CC1` [Example 35, 5-((E)-1-((trans)-4-Aminocyclohexyl)prop-1-en-1-yl)-N-((4,6-dimethyl-2-oxo-1,2-dihydropyridin-3-yl)methyl)-4-methylthiophene-3-carboxamide] had an IC50 of 13 nM.

Take `C/C=C(/c1scc(C(=O)NCc2c(C)cc(C)[nH]c2=O)c1C)C1CCNCC1` [Example 33, (E)-N-((4,6-Dimethyl-2-oxo-1,2-dihydropyridin-3-yl)methyl)-4-methyl-5-(1-(piperidin-4-yl)prop-1-en-1-yl)thiophene-3-carboxamide]: the IC50 in assay [1] is at most 10 nM.
